Measurements reported in ChEMBL document CHEMBL1949568, “Discovery of diphenyl lactam derivatives as N-type calcium channel blockers” (Bioorg Med Chem Lett, 2012).
Values after ≈ are worked out from the molar mass of the structure shown. Active and inactive are the calls of the source. The calls are words filed in the database; no cut-off is given here.

Tests used:
[1] = Aqueous solubility of the compound at pH 7; assay type: physicochemical
[2] = Inhibition of N-type calcium channel by FLIPR assay
[3] = Metabolic stability in rat liver microsomes assessed as compound remaining after 30 mins; assay type: ADME, Microsome; details: read-out: Stability
[4] = Volume of distribution at steady state in rat at 5 umol/kg, iv and 30 umol/kg, po; assay type: ADME, organism-based; details: in vivo, read-out: Vdss
[5] = Metabolic stability in human liver microsomes assessed as compound remaining after 30 mins; assay type: ADME, Microsome; details: read-out: Stability
[6] = Plasma clearance in rat at 5 umol/kg, iv and 30 umol/kg, po; assay type: ADME, organism-based
[7] = Half life in rat at 5 umol/kg, iv and 30 umol/kg, po; assay type: ADME, organism-based; details: in vivo
[8] = AUC in rat at 30 umol/kg, po; assay type: ADME, organism-based; details: plasma
[9] = Oral bioavailability in rat at 30 umol/kg; assay type: ADME, organism-based; details: in vivo
Rattus norvegicus [10] = test: Antinociceptive activity in rat capsaicin model of secondary mechanical hyperalgesia assessed as inhibition of tactile allodynia at 150 mg/kg, po; assay type: functional, organism-based; set-up: dose 150 mg/kg
Rattus norvegicus [11] = test: Volume of distribution at steady state in rat at 3 umol/kg, po; assay type: ADME, organism-based; details: in vivo
[12] = Oral bioavailability in rat at 3 umol/kg; assay type: ADME, organism-based; details: in vivo
Rattus norvegicus [13] = test: Antinociceptive activity in rat capsaicin model of secondary mechanical hyperalgesia assessed as inhibition of tactile allodynia at 30 mg/kg, po; assay type: functional, organism-based; set-up: dose 30 mg/kg
[14] = Plasma clearance in rat at 3 umol/kg, po; assay type: ADME, organism-based
[15] = Half life in rat at 3 umol/kg, po; assay type: ADME, organism-based; details: in vivo
[16] = AUC in rat at 3 umol/kg, po; assay type: ADME, organism-based; details: plasma

SMILES | solubility [1] [µM] | IC50 [2] [nM] | pIC50 [2] | also measured
O=C(CN1CCCC(c2ccc(F)cc2)(c2ccc(F)cc2)C1=O)N1CCN(C(c2ccccc2)c2ccccc2)CC1 | < 25 | 4610 | 5.34 | –
O=C(CN1CCCC(c2ccccc2)(c2ccccc2)C1=O)N1CC(c2ccc(C(F)(F)F)cc2)C1 | < 25 | 3070 | 5.51 | –
O=C(CN1CCCC(c2ccccc2)(c2ccccc2)C1=O)N1CCN(Cc2cccc(C(F)(F)F)c2)CC1 | < 25 | 930 | 6.03 | remaining at 0.5 h [3]: 1.2%; Vd [4]: 5.9 L/kg; remaining at 0.5 h [5]: 0.1%; clearance [6]: 41.7 mL/min/kg; half-life [7]: 2.7 h; AUC [8]: 1000 ng·h/mL; bioavailability [9]: 15.6%
O=C(CN1CCC(c2ccccc2)(c2ccccc2)C1=O)N1CCN(C(c2ccc(F)cc2)c2ccc(F)cc2)CC1 | < 25 | 430 | 6.37 | –
NCC1(CC(=O)O)CCCCC1 | – | – | – | inhibition (Rattus norvegicus [10]): Active
O=C(CN1CCC(c2ccc(F)cc2)(c2ccc(F)cc2)C1=O)N1CCN(Cc2cccc(C(F)(F)F)c2)CC1 | < 25 | 1010 | 6 | –
O=C(CN1CCCC(c2ccc(F)cc2)(c2ccc(F)cc2)C1=O)N1CCN(Cc2cccc(C(F)(F)F)c2)CC1 | < 25 | 1360 | 5.87 | –
O=C(CN1CCCC(c2ccccc2)(c2ccccc2)C1=O)N1CCC(C(O)(c2ccccc2)c2ccccc2)CC1 | < 25 | 1740 | 5.76 | –
O=C(CN1CCC(c2ccccc2)(c2ccccc2)C1=O)N1CCN(Cc2cccc(C(F)(F)F)c2)CC1 | < 25 | 1030 | 5.99 | remaining at 0.5 h [3]: 0.1%; remaining at 0.5 h [5]: 0.3%
O=C(CN1CCC(c2ccccc2)(c2ccccc2)C1=O)N1CCN(Cc2c(Cl)cccc2Cl)CC1 | < 25 | 900 | 6.04 | –
O=C(CN1CCC(c2ccccc2)(c2ccccc2)C1=O)N1CCN(C(c2ccccc2)c2ccccc2)CC1 | < 25 | 720 | 6.14 | remaining at 0.5 h [3]: 0.4%; Vdss (Rattus norvegicus [11]): 6.9 L/kg; bioavailability [12]: 16.4%; inhibition (Rattus norvegicus [13]): Active; CL/F [14]: 26.7 mL/min/kg; half-life [15]: 5.6 h; AUC [16]: 159 ng·h/mL
O=C(CN1CCC(c2ccccc2)(c2ccccc2)C1=O)N1CCN(Cc2ccc(F)cc2)CC1 | 57 (≈ 26.9 µg/mL) | 2220 | 5.65 | –
O=C(CN1CCC(c2ccccc2)(c2ccccc2)C1=O)N1CCN(C(c2ccccc2)c2ccc(F)cc2)CC1 (stereo not drawn) | < 25 | 450 | 6.35 | –
O=C(CN1CCCC(c2ccccc2)(c2ccccc2)C1=O)N1CCc2ccc(C(F)(F)F)cc2C1 | < 25 | 4440 | 5.35 | –
O=C(CN1CCCC(c2ccccc2)(c2ccccc2)C1=O)N1CCN(C(c2ccccc2)c2ccccc2)CC1 | < 25 | 1380 | 5.86 | remaining at 0.5 h [3]: 0.1%; Vdss (Rattus norvegicus [11]): 5.8 L/kg; bioavailability [12]: 16.6%; remaining at 0.5 h [5]: 0.1%; inhibition (Rattus norvegicus [13]): Active; CL/F [14]: 25 mL/min/kg; half-life [15]: 5.2 h; AUC [16]: 186 ng·h/mL
O=C(CN1CCCC(c2ccccc2)(c2ccccc2)C1=O)N1CCN(Cc2ccc(C(F)(F)F)cc2)CC1 | < 25 | 1380 | 5.86 | –
O=C(CN1CCCC(c2ccccc2)(c2ccccc2)C1=O)N1CCC(c2ccccc2)(c2ccccc2)CC1 | < 25 | 660 | 6.18 | Vd [4]: 11.4 L/kg; clearance [6]: 45 mL/min/kg; half-life [7]: 6.3 h; AUC [8]: 2990 ng·h/mL; bioavailability [9]: 50%
O=C(CN1CCCC(c2ccccc2)(c2ccccc2)C1=O)N1CCC(NC(c2ccccc2)c2ccccc2)CC1 | < 25 | 810 | 6.09 | remaining at 0.5 h [3]: < 0.1%; remaining at 0.5 h [5]: < 0.1%
O=C(CN1CCCC(c2ccccc2)(c2ccccc2)C1=O)N1CCC(C(c2ccccc2)c2ccccc2)CC1 | < 25 | 2610 | 5.58 | –
O=C(CN1CCC(c2ccccc2)(c2ccccc2)C1=O)N1CCN(Cc2ccc(Cl)cc2Cl)CC1 | < 25 | 520 | 6.28 | –
O=C(CN1CCCC(c2ccccc2)(c2ccccc2)C1=O)N1CCN(C(c2ccc(F)cc2)c2ccc(F)cc2)CC1 | < 25 | 2360 | 5.63 | –
O=C(CN1CCCC(c2ccccc2)(c2ccccc2)C1=O)N1CCCC(c2ccccc2)(c2ccccc2)C1 | < 25 | 810 | 6.09 | –
O=C(CN1CCCC(c2ccccc2)(c2ccccc2)C1=O)N1CCN(Cc2ccc(Cl)cc2Cl)CC1 | < 25 | 1800 | 5.75 | –
O=C(CN1CCCC(c2ccccc2)(c2ccccc2)C1=O)N1CCC(c2ccccc2)(c2ccccc2)C1 | < 25 | 2430 | 5.61 | –
O=C(CN1CCC(c2ccc(F)cc2)(c2ccc(F)cc2)C1=O)N1CCN(C(c2ccccc2)c2ccccc2)CC1 | < 25 | 830 | 6.08 | remaining at 0.5 h [3]: 2%; Vdss (Rattus norvegicus [11]): 13.2 L/kg; bioavailability [12]: 20.3%; remaining at 0.5 h [5]: 2.5%; inhibition (Rattus norvegicus [13]): Active; CL/F [14]: 36.7 mL/min/kg; half-life [15]: 7.2 h; AUC [16]: 160 ng·h/mL
O=C(CN1CCCC(c2ccccc2)(c2ccccc2)C1=O)N1CCN(Cc2cccc(Cl)c2)CC1 | < 25 | 1320 | 5.88 | –
O=C(CN1CCC(c2ccccc2)(c2ccccc2)C1=O)N1CCN(C(c2ccccc2)c2ccc(Cl)cc2)CC1 (stereo not drawn) | < 25 | 1010 | 5.99 | –
